Test system: 313798-341-R-J2-PDC spheroids, viability
Assay: Anticancer human tumor 313798-341-R-J2-PDC patient-derived cervical squamous cell carcinoma cell line growth inhibition [PI3K]
Details: spheroids with HUVEC and MSC; for IC50: curve of first compound; for viability, T/C: stronger effect = lower value; active means viability on the fitted dose curve at most 10% of control; inactive means the rest
Outline: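 High-throughput combination screen: PI3K inhibitors crossed with targeted small molecules on complex spheroids of tumor cells, HUVEC and MSCs at 37 degrees C, 5% CO2. Top concentration was at or near clinical Cmax (otherwise 10 microM), with half-log decrements.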

[1] = second compound 0.00316 µM, first compound 0.0316 µM
[2] = second compound 0.00316 µM, first compound 0.1 µM
[3] = second compound 0.01 µM, first compound 0.0316 µM
[4] = second compound 0.01 µM, first compound 0.1 µM
[5] = second compound 0.0316 µM, first compound 0.0316 µM
[6] = second compound 0.0316 µM, first compound 0.1 µM
[7] = second compound 0.1 µM, first compound 0.0316 µM
[8] = second compound 0.1 µM, first compound 0.1 µM
[9] = second compound 0.316 µM, first compound 0.0316 µM
[10] = second compound 0.316 µM, first compound 0.1 µM
[11] = second compound 1 µM, first compound 0.0316 µM
[12] = second compound 1 µM, first compound 0.1 µM
[13] = second compound 0.0316 µM, first compound 0.316 µM
[14] = second compound 0.0316 µM, first compound 1 µM
[15] = second compound 0.0316 µM, first compound 3.16 µM
[16] = second compound 0.0316 µM, first compound 10 µM
[17] = second compound 0.1 µM, first compound 0.316 µM
[18] = second compound 0.1 µM, first compound 1 µM
[19] = second compound 0.1 µM, first compound 3.16 µM
[20] = second compound 0.1 µM, first compound 10 µM
[21] = second compound 0.316 µM, first compound 0.316 µM
[22] = second compound 0.316 µM, first compound 1 µM
[23] = second compound 0.316 µM, first compound 3.16 µM
[24] = second compound 0.316 µM, first compound 10 µM
[25] = second compound 1 µM, first compound 0.316 µM
[26] = second compound 1 µM, first compound 1 µM
[27] = second compound 1 µM, first compound 3.16 µM
[28] = second compound 1 µM, first compound 10 µM
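Further: spheroids exposed to compounds for seven days.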
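Wherever viability, T/C is given: 100% = DMSO vehicle control viability.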

Cn1ncnc1[C@H]1c2n[nH]c(=O)c3cc(F)cc(c23)N[C@@H]1c1ccc(F)cc1 + CC(Nc1ccc2c(c1)OCCn1cc(N3C(=O)OCC3C(F)F)nc1-2)C(N)=O
> 0.1 µM: IC50 (second compound 0.00316 µM) | IC50 (second compound 0.01 µM) | IC50 (second compound 0.0316 µM) | IC50 (second compound 0.1 µM) | IC50 (second compound 0.316 µM)
inactive: viability, T/C (second compound 0.00316 µM, first compound 0.000316 µM) 104% | viability, T/C (second compound 0.00316 µM, first compound 0.001 µM) 96.2% | viability, T/C (second compound 0.00316 µM, first compound 0.00316 µM) 99.1% | viability, T/C (second compound 0.00316 µM, first compound 0.01 µM) 98.1% | viability, T/C [1] 94.9% | viability, T/C [2] 84.7% | viability, T/C (second compound 0.01 µM, first compound 0.000316 µM) 95.7% | viability, T/C (second compound 0.01 µM, first compound 0.001 µM) 104% | viability, T/C (second compound 0.01 µM, first compound 0.00316 µM) 88.5% | viability, T/C (second compound 0.01 µM, first compound 0.01 µM) 93.5% | viability, T/C [3] 92.8% | viability, T/C [4] 83.5% | viability, T/C (second compound 0.0316 µM, first compound 0.000316 µM) 107% | viability, T/C (second compound 0.0316 µM, first compound 0.001 µM) 102% | viability, T/C (second compound 0.0316 µM, first compound 0.00316 µM) 115% | viability, T/C (second compound 0.0316 µM, first compound 0.01 µM) 106% | viability, T/C [5] 100% | viability, T/C [6] 100% | viability, T/C (second compound 0.1 µM, first compound 0.000316 µM) 102% | viability, T/C (second compound 0.1 µM, first compound 0.001 µM) 102% | viability, T/C (second compound 0.1 µM, first compound 0.00316 µM) 91.7% | viability, T/C (second compound 0.1 µM, first compound 0.01 µM) 89% | viability, T/C [7] 96.9% | viability, T/C [8] 72.8% | viability, T/C (second compound 0.316 µM, first compound 0.000316 µM) 77.2% | viability, T/C (second compound 0.316 µM, first compound 0.001 µM) 78% | viability, T/C (second compound 0.316 µM, first compound 0.00316 µM) 78.3% | viability, T/C (second compound 0.316 µM, first compound 0.01 µM) 73.6% | viability, T/C [9] 71.3% | viability, T/C [10] 58.1% | viability, T/C (second compound 1 µM, first compound 0.000316 µM) 57.5% | viability, T/C (second compound 1 µM, first compound 0.001 µM) 57% | viability, T/C (second compound 1 µM, first compound 0.00316 µM) 58.3% | viability, T/C (second compound 1 µM, first compound 0.01 µM) 48.1% | viability, T/C [11] 52.1% | viability, T/C [12] 38.1%
0.0225 µM: IC50 (second compound 1 µM)

CCCS(=O)(=O)Nc1ccc(F)c(C(=O)c2c[nH]c3ncc(-c4ccc(Cl)cc4)cc23)c1F + Cc1nc(NC(=O)N2CCCC2C(N)=O)sc1-c1ccnc(C(C)(C)C(F)(F)F)c1
4.52 µM: IC50 (second compound 1 µM)
3.14 µM: IC50 (second compound 3.16 µM)
< 0.0316 µM: IC50 (second compound 10 µM)
5.6 µM: IC50 (second compound 0.1 µM)
active: viability, T/C [16] 8.19% | viability, T/C [20] 8.86% | viability, T/C [28] 6.27% | viability, T/C (second compound 3.16 µM, first compound 10 µM) 6.48%
5.85 µM: IC50 (second compound 0.0316 µM)
5.65 µM: IC50 (second compound 0.316 µM)
inactive: viability, T/C [5] 110% | viability, T/C [6] 92% | viability, T/C [13] 93.7% | viability, T/C [14] 103% | viability, T/C [15] 98% | viability, T/C [7] 100% | viability, T/C [8] 105% | viability, T/C [17] 98.7% | viability, T/C [18] 106% | viability, T/C [19] 90.7% | viability, T/C [9] 99.6% | viability, T/C [10] 111% | viability, T/C [21] 90.8% | viability, T/C [22] 105% | viability, T/C [23] 89.6% | viability, T/C [24] 10.9% | viability, T/C [11] 93.2% | viability, T/C [12] 90.1% | viability, T/C [25] 88.7% | viability, T/C [26] 83.9% | viability, T/C [27] 70.7% | viability, T/C (second compound 3.16 µM, first compound 0.0316 µM) 62% | viability, T/C (second compound 3.16 µM, first compound 0.1 µM) 56.8% | viability, T/C (second compound 3.16 µM, first compound 0.316 µM) 56.5% | viability, T/C (second compound 3.16 µM, first compound 1 µM) 58.7% | viability, T/C (second compound 3.16 µM, first compound 3.16 µM) 49.8% | viability, T/C (second compound 10 µM, first compound 0.0316 µM) 33.5% | viability, T/C (second compound 10 µM, first compound 0.1 µM) 32.5% | viability, T/C (second compound 10 µM, first compound 0.316 µM) 38.7% | viability, T/C (second compound 10 µM, first compound 1 µM) 36.4% | viability, T/C (second compound 10 µM, first compound 3.16 µM) 31.2% | viability, T/C (second compound 10 µM, first compound 10 µM) 5.01%

CCCS(=O)(=O)Nc1ccc(F)c(C(=O)c2c[nH]c3ncc(-c4ccc(Cl)cc4)cc23)c1F + COc1c(OCCCN2CCOCC2)ccc2c3n(c(=NC(=O)c4cnc(N)nc4)nc12)CCN3
0.11 µM: IC50 (second compound 0.1 µM)
5.16 µM: IC50 (second compound 0.0316 µM)
inactive: viability, T/C [1] 109% | viability, T/C [2] 98.6% | viability, T/C (second compound 0.00316 µM, first compound 0.316 µM) 99.6% | viability, T/C (second compound 0.00316 µM, first compound 1 µM) 92.3% | viability, T/C (second compound 0.00316 µM, first compound 3.16 µM) 95.5% | viability, T/C (second compound 0.00316 µM, first compound 10 µM) 15.7% | viability, T/C [3] 89.1% | viability, T/C [4] 96.2% | viability, T/C (second compound 0.01 µM, first compound 0.316 µM) 103% | viability, T/C (second compound 0.01 µM, first compound 1 µM) 98.6% | viability, T/C (second compound 0.01 µM, first compound 3.16 µM) 97.1% | viability, T/C (second compound 0.01 µM, first compound 10 µM) 12.5% | viability, T/C [5] 68.7% | viability, T/C [6] 94.1% | viability, T/C [13] 86.5% | viability, T/C [14] 83.8% | viability, T/C [15] 78.1% | viability, T/C [16] 12% | viability, T/C [7] 47.9% | viability, T/C [8] 54.2% | viability, T/C [17] 48.4% | viability, T/C [18] 41.4% | viability, T/C [19] 33.9% | viability, T/C [20] 15.7% | viability, T/C [9] 16.7% | viability, T/C [10] 18.7% | viability, T/C [21] 19.1% | viability, T/C [22] 20.5% | viability, T/C [23] 22.4% | viability, T/C [24] 12.7% | viability, T/C [11] 13.2% | viability, T/C [12] 12.4% | viability, T/C [25] 14.6% | viability, T/C [26] 14.3% | viability, T/C [27] 19.8% | viability, T/C [28] 9.24%
6.1 µM: IC50 (second compound 0.00316 µM)
< 0.0316 µM: IC50 (second compound 0.316 µM) | IC50 (second compound 1 µM)
5.99 µM: IC50 (second compound 0.01 µM)
